The test system of series [1] is Acinetobacter baumannii MB9955. The following applies: Mueller-Hinton medium, 37°C, 24 h, inoculum 5 × 10^5 CFU/mL; MIC based on three sets of determinations. How it is done:
(§1) The A. baumannii strains used in this study consisted of seven strains resistant to Polymyxin B and Colistin (antibiotics of last resort) obtained from MERCK (M89941, M89949, M89951, M89952, M89953, M89955 and M89963). The MICGM in this case is the geometric mean MIC from the seven Acinetobacter baumannii strains used in this study.
(§2) The minimal inhibitory concentration (MIC) is defined as the lowest peptide concentration that inhibited bacterial growth. MICs were measured by a standard microtiter dilution method in Mueller Hinton (MH) medium. Briefly, cells were grown overnight at 37°C in MH broth and were diluted in the same medium. […] The plates were incubated at 37°C for 24h, and the MICs were determined. The MICGM is the geometric mean of the number of MIC values.

In series [2] the test system is human red blood cells.
Method: (§3) Peptide samples (concentrations determined by amino acid analysis) were added to 1% human erythrocytes in phosphate-buffered saline (100 mM NaCl, 80 mM Na2HPO4, 20 mM NaH2PO4, pH 7.4) and the reaction mixtures were incubated at 37°C for 18h in microtiter plates. Two-fold serial dilutions of the peptide samples were carried out. This determination was made by withdrawing aliquots from the hemolysis assays and removing unlysed erythrocytes by centrifugation (800 × g). Hemoglobin release was determined spectrophotometrically at 570 nm. The control for 100% hemolysis was a sample of erythrocytes treated with water. The control for no release of hemoglobin was a sample of 1% erythrocytes without any peptide added. […] The hemolytic activity HC50 is the peptide concentration that causes 50% hemolysis of erythrocytes after 18h. HC50 was determined from a plot of percent lysis versus peptide concentration (μM) using 12 different concentrations up to 1000 micrograms per ml for 18h at 37°C. The average of 3 replicates is used with an average variance of less than 4%. Fresh human blood was obtained from Vitalant, Denver, CO, USA.
(§4) In order to determine that we were able to eliminate hemolysis of human red blood cells, we used the most rigorous test of hemolytic activity (18h at 37°C and up to 1000 μg/mL or >350 μM of AMP). […] The HC50 value is estimated when 50% hemolysis is not observed at 1000 μg/mL by extrapolation of the plots observed in figure 3.
For series [3], the system named is Acinetobacter baumannii MB9941. The following applies: Mueller-Hinton medium, 37°C, 24 h, inoculum 5 × 10^5 CFU/mL; MIC based on three sets of determinations. How it is done: as §1, §2
Series [4] deals with Acinetobacter baumannii MB9949. The following applies: Mueller-Hinton medium, 37°C, 24 h, inoculum 5 × 10^5 CFU/mL; MIC based on three sets of determinations. How it is done: as §1, §2
Series [5] has as its system Acinetobacter baumannii MB9951. As to conditions: Mueller-Hinton medium, 37°C, 24 h, inoculum 5 × 10^5 CFU/mL; MIC based on three sets of determinations. As to the method: as §1, §2
Series [6] has as its system Acinetobacter baumannii MB9952. As to conditions: Mueller-Hinton medium, 37°C, 24 h, inoculum 5 × 10^5 CFU/mL; MIC based on three sets of determinations. How it is done: as §1, §2
Series [7] deals with Acinetobacter baumannii MB9953. As to conditions: Mueller-Hinton medium, 37°C, 24 h, inoculum 5 × 10^5 CFU/mL; MIC based on three sets of determinations. As to the method:
as §1, §2

The test system of series [8] is Acinetobacter baumannii MB9963. As to conditions: Mueller-Hinton medium, 37°C, 24 h, inoculum 5 × 10^5 CFU/mL; MIC based on three sets of determinations. As to the method: as §1, §2
Series [9] has as its system human red blood cells. Nature of the series: Hemolytic activity (HC50) determination. As to conditions: 1% human erythrocytes in PBS pH 7.4, 37°C, 18 h, 12 concentrations up to 1000 μg/mL, hemoglobin release at 570 nm, average of 3 replicates; estimated by extrapolation when 50% hemolysis not observed at 1000 μg/mL.
Method: as §3, §4

Structures are written as SMILES. Converted amounts (≈) assume the structure as drawn. Square brackets hold non-standard residues; d marks the D form. Peptide text beside a SMILES is read from it. Dab = NCC[C@H](N)C(=O)O; Dap = NC[C@H](N)C(=O)O Some results are limits rather than exact numbers.

`CC(=O)N[C@H](CCCCN)C(=O)N[C@H](CC(C)C)C(=O)N[C@@H](CN)C(=O)N[C@H](CO)C(=O)N[C@H](CC(C)C)C(=O)N[C@H](CC(C)C)C(=O)N[C@@H](CN)C(=O)N[C@@H](C(=O)N[C@H](CC(C)C)C(=O)N[C@H](CO)C(=O)N[C@@H](CN)C(=O)N[C@H](C)C(=O)N[C@H](CCCCN)C(=O)N[C@H](C)C(=O)N[C@H](C)C(=O)N[C@H](CCCCN)C(=O)N[C@H](CC(C)C)C(=O)N[C@@H](CN)C(=O)N[C@@H](C(=O)N[C@H](CC(C)C)C(=O)N[C@H](CC(C)C)C(=O)N[C@@H](CN)C(=O)N[C@H](C)C(=O)N[C@H](CC(C)C)C(=O)N[C@H](CO)C(=O)N[C@@H](CN)C(N)=O)[C@H](C)O)[C@H](C)O` [D105(Lys^1-6 Dap-1)] (Ac-[dK][dL][Dap][dS][dL][dL][Dap][dT][dL][dS][Dap][dA][dK][dA][dA][dK][dL][Dap][dT][dL][dL][Dap][dA][dL][dS][Dap]-NH2): the “MIC MB9955” value in series [1] came to 0.5 µM (≈ 1.31 µg/mL). Further, in the series with human red blood cells [2], the “lysis of human red blood cells at 1000 μg/mL” value is reported as “essentially no lysis”.

As for `CC(=O)N[C@H](CCCCN)C(=O)N[C@H](CC(C)C)C(=O)N[C@H](CCCCN)C(=O)N[C@H](CO)C(=O)N[C@H](CC(C)C)C(=O)N[C@H](CC(C)C)C(=O)N[C@H](CCCCN)C(=O)N[C@@H](C(=O)N[C@H](CC(C)C)C(=O)N[C@H](CO)C(=O)N[C@H](C)C(=O)N[C@H](C)C(=O)N[C@H](CCCCN)C(=O)N[C@H](CCCCN)C(=O)N[C@H](CCCCN)C(=O)N[C@H](CCCCN)C(=O)N[C@H](CC(C)C)C(=O)N[C@H](C)C(=O)N[C@@H](C(=O)N[C@H](CC(C)C)C(=O)N[C@H](CC(C)C)C(=O)N[C@H](CCCCN)C(=O)N[C@H](C)C(=O)N[C@H](CC(C)C)C(=O)N[C@H](CO)C(=O)N[C@H](CO)C(N)=O)[C@H](C)O)[C@H](C)O` [D103(Lys^1Ser^26-5 Lys-2)] (Ac-[dK][dL][dK][dS][dL][dL][dK][dT][dL][dS][dA][dA][dK][dK][dK][dK][dL][dA][dT][dL][dL][dK][dA][dL][dS][dS]-NH2), the “MIC MB9941” value in [3] was 0.7 µM (≈ 1.98 µg/mL). The “MIC MB9949” value in series [4] is 0.7 µM (≈ 1.98 µg/mL). Further, the “MIC MB9951” value in series [5] came out at 0.7 µM (≈ 1.98 µg/mL). Also, in [6], the “MIC MB9952” value came out at 0.7 µM (≈ 1.98 µg/mL). For the same compound, the “MIC MB9953” value in [7] was found to be 0.7 µM (≈ 1.98 µg/mL). Moreover, the “MIC MB9955” value in [1] is 0.7 µM (≈ 1.98 µg/mL). Besides, in [8], the “MIC MB9963” value was 0.7 µM (≈ 1.98 µg/mL). Besides, in the series with human red blood cells [9], the “HC50 (concentration of peptide that results in 50% hemolysis)” value is 134.9 µM.

Consider `CC(=O)N[C@H](CCCCN)C(=O)N[C@H](CC(C)C)C(=O)N[C@@H](CCN)C(=O)N[C@H](CO)C(=O)N[C@H](CC(C)C)C(=O)N[C@H](CC(C)C)C(=O)N[C@@H](CCN)C(=O)N[C@@H](C(=O)N[C@H](CC(C)C)C(=O)N[C@H](CO)C(=O)N[C@@H](CCN)C(=O)N[C@H](C)C(=O)N[C@H](CCCCN)C(=O)N[C@H](C)C(=O)N[C@H](C)C(=O)N[C@H](CCCCN)C(=O)N[C@H](CC(C)C)C(=O)N[C@@H](CCN)C(=O)N[C@@H](C(=O)N[C@H](CC(C)C)C(=O)N[C@H](CC(C)C)C(=O)N[C@@H](CCN)C(=O)N[C@H](C)C(=O)N[C@H](CC(C)C)C(=O)N[C@H](CO)C(=O)N[C@H](CO)C(N)=O)[C@H](C)O)[C@H](C)O` [D102(Lys^1Ser^26-5 Dab-1)] (Ac-[dK][dL][Dab][dS][dL][dL][Dab][dT][dL][dS][Dab][dA][dK][dA][dA][dK][dL][Dab][dT][dL][dL][Dab][dA][dL][dS][dS]-NH2), for which, in series [3], the “MIC MB9941” value was 0.4 µM (≈ 1.07 µg/mL). Also, the “MIC MB9949” value in series [4] was 0.7 µM (≈ 1.88 µg/mL). In addition, the “MIC MB9951” value in series [5] came to 0.7 µM (≈ 1.88 µg/mL). In series [6], the “MIC MB9952” value was 0.7 µM (≈ 1.88 µg/mL). Also, the “MIC MB9953” value in series [7] amounted to 1.4 µM (≈ 3.76 µg/mL). The “MIC MB9955” value in series [1] was found to be 0.7 µM (≈ 1.88 µg/mL). The “MIC MB9963” value in [8] is 0.7 µM (≈ 1.88 µg/mL). For the same compound, the “HC50 (concentration of peptide that results in 50% hemolysis)” value with human red blood cells [9] is more than 708 µM.

Turning to `CC(=O)N[C@H](CCCCN)C(=O)N[C@H](CC(C)C)C(=O)N[C@@H](CN)C(=O)N[C@H](CO)C(=O)N[C@H](CC(C)C)C(=O)N[C@H](CC(C)C)C(=O)N[C@@H](CN)C(=O)N[C@@H](C(=O)N[C@H](CC(C)C)C(=O)N[C@H](CO)C(=O)N[C@H](C)C(=O)N[C@H](C)C(=O)N[C@H](CCCCN)C(=O)N[C@@H](CN)C(=O)N[C@@H](CN)C(=O)N[C@H](CCCCN)C(=O)N[C@H](CC(C)C)C(=O)N[C@H](C)C(=O)N[C@@H](C(=O)N[C@H](CC(C)C)C(=O)N[C@H](CC(C)C)C(=O)N[C@@H](CN)C(=O)N[C@H](C)C(=O)N[C@H](CC(C)C)C(=O)N[C@H](CO)C(=O)N[C@@H](CN)C(N)=O)[C@H](C)O)[C@H](C)O` [D106(Lys^1-6 Dap-2)] (Ac-[dK][dL][Dap][dS][dL][dL][Dap][dT][dL][dS][dA][dA][dK][Dap][Dap][dK][dL][dA][dT][dL][dL][Dap][dA][dL][dS][Dap]-NH2), the “MIC MB9941” value in series [3] amounted to 0.8 µM (≈ 2.09 µg/mL). Besides, the “MIC MB9949” value in series [4] worked out at 0.8 µM (≈ 2.09 µg/mL). Besides, in series [5], the “MIC MB9951” value turned out to be 1.5 µM (≈ 3.92 µg/mL). Further, in series [6], the “MIC MB9952” value was 0.8 µM (≈ 2.09 µg/mL). Moreover, the “MIC MB9953” value in [7] was 0.8 µM (≈ 2.09 µg/mL). In addition, the “MIC MB9955” value in series [1] stood at 0.4 µM (≈ 1.05 µg/mL). Moreover, the “MIC MB9963” value in series [8] is 0.8 µM (≈ 2.09 µg/mL).
